In this test the test system is HEK293T cells stably transfected with 8×TBD luciferase reporter and pRLTK. As to the kind of experiment: YAP Reporter Assay (8×TBD firefly luciferase reporter). It counts as cell-based. The settings on record: Homo sapiens, HEK-293T; HEK293T 8×TBD reporter cells, 24-hr incubation, top concentration 3 μM, 1:3 dilution, 10 points. How it is done:
HEK293T cells stably transfected with 8×TBD luciferase reporter and pRLTK in 384-well plates were treated with the test compounds, starting from 3 μM (final concentration in assay plate), 1:3 dilution, and 10 points in quadruplicates. Post 24-hr incubation with compounds at 37° C. and 5% CO2, cells were lysed and 8×TBD-driven firefly luciferase and control TK-driven renilla luciferase activities were measured using Promega Dual-Luciferase Reporter Assay System.
Reagents: The reagents used for this study are: DMEM: Invitrogen #11960077, Dual-Glo Luciferase Assay System: Promega-E2980, Puromycin Dihydrochloride: Invitrogen-A1113803, 384-well plate: PerkinElmer-6007480, L-GLUTAMINE: Invitrogen-25030164, Hygromycin B: Invitrogen-10687010, and Penicillin-Streptomycin: Merk-TMS-AB2-C
Media: The media used for this assay were: Culture Medium: DMEM+1 ug/mL puromycin+200 ug/mL hygromycin (with 10% FBS+1 mM L-glutamine); and Assay Medium: DMEM (with 10% FBS+1 mM L-glutamine+1×P/S).
Cell Plating: The appropriate media was warmed at 37° C. by water bath: Culture Medium, Assay Medium, 1*D-PBS, 0.05% trypsin-EDTA. The cells were trypsinized after removing all media, then washed with 1* sterile D-PBS and then with 2 ml 0.05% trypsin-EDTA. The cells were then incubated at RT for one minute. Then 10 ml/75 cm2 flask Assay Medium was added to each flask. Using a 10 ml pipette, the cells were then gently resuspended in the media, until the clumps completely disappeared. The cells were then transferred into 50 ml centrifuge tubes and were centrifuged at 800 rpm for 5 mins. The medium was removed and the cells were resuspended with Assay Medium. An aliquot of cells was used to count the cell density (cells/ml). The cell suspension was then diluted with Assay Medium to a concentration of 6×10^4 cells/ml. 50 ul cells suspension was then plated to 384-well plate (PerkinElmer-6007480), 3×10^3 cells/well and the cells were incubated in an incubator at 37° C., 5% CO2.
Compound Treatment: In the afternoon (incubation of the plate with 3-4 hrs), the test compounds were added by Echo, starting from 3 uM (final concentration in the assay plate), 1:3 dilution, 10 points, quadruplicates. The plate was placed at 37° C., 5% CO2 incubator for 24 hrs.
Detection: The Dual-Glo Luciferase Reagent was prepared by transferring the contents of one bottle of Dual-Glo Luciferase Buffer to one bottle of Dual-Glo Luciferase Substrate to create the Dual-Glo Luciferase Reagent. Mixing was performed by inversion until the substrate was thoroughly dissolved. After mixing, the reagent was aliquoted into 15 ml tubes. In the afternoon (24 hrs post compound treatment), the DMEM+ medium in the 384 well plates were aspirated by Microplate Washer.
Measuring firefly luciferase activity: 20 ul Dual-Glo Luciferase Reagent was added to the 384-well plates. The plates were protected from light to prevent interference with the assay. The plates were shaken for 1 min followed centrifuging plates at 1000 rpm for 30 seconds. After waiting at least 10 minutes, the firefly luminescence was measured by Envision.
Measuring renilla luciferase activity: 20 ul Stop-Glo Reagent was added to the 384-well plates. The plates were shaken for 1 min and then centrifuged at 1000 rpm for 30 seconds. After waiting at least 10 minutes, the renilla luminescence was measured by Envision.
Compound IC50 and maximum inhibition on the firefly luciferase and renilla luciferase activities were reported separately.

Bounds are passed on as bounds.

In turn, `Cn1cnc(-c2cc(C(=O)NC3CC3)ccc2Nc2ccc(C(F)(F)F)cc2)c1` [Compound 37, N-cyclopropyl-3-(1-methylimidazol-4-yl)-4-[4 (trifluoromethyl)anilino] benzamide] showed an IC50 of at most 100 nM.
In the case of `Cn1cnc(-c2cc(C(=O)NS(N)(=O)=O)ccc2Nc2ccc(C(F)(F)F)cc2)c1` [Compound 38, 3-(1-methylimidazol-4-yl)-N-sulfamoyl-4-[4-(trifluoromethyl)anilino] benzamide] it was at most 100 nM; in that of `O=C(O)c1ccc(Nc2ccc(C(F)(F)F)cc2)c(-c2ccccn2)c1` [Compound 39, 3-(pyridin-2-yl)-4-((4-(trifluoromethyl)phenyl)amino) benzoic acid], at most 100 nM.
The figure for `O=C(O)c1ccc(Nc2ccc(C(F)(F)F)cc2)c(-c2ncccn2)c1` [Compound 40, 3-(pyrimidin-2-yl)-4-((4-(trifluoromethyl)phenyl)amino) benzoic acid] is at most 100 nM.
In the case of `O=C(O)c1ccc(Nc2ccc(C(F)(F)F)cc2)c(-c2cscn2)c1` [Compound 41, 3-(thiazol-4-yl)-4-((4-(trifluoromethyl)phenyl)amino) benzoic acid] it was at most 100 nM; in that of `O=C(O)c1ccc(Nc2ccc(C(F)(F)F)cc2)c(-c2nccs2)c1` [Compound 42, 3-(thiazol-2-yl)-4-((4-(trifluoromethyl)phenyl)amino) benzoic acid], at most 100 nM.
`O=C(O)c1ccc(Nc2ccc(C(F)(F)F)cc2)c(-c2cnccn2)c1` [Compound 43, 3-(pyrazin-2-yl)-4-((4-(trifluoromethyl)phenyl)amino) benzoic acid]: the IC50 is at most 100 nM.
The figure for `Cn1nnc(-c2cc(C(=O)NCCOCCOCCN)ccc2Nc2ccc(C(F)(F)F)cc2)n1` [Compound 44, N-(2-(2-(2-aminoethoxy)ethoxy)ethyl)-3-(2-methyl-2H-tetrazol-5-yl)-4-((4-(trifluoromethyl)phenyl)amino) benzamide] is 100 to 1000 nM.
The figure for `CC(=O)NCCOCCOCCNC(=O)c1ccc(Nc2ccc(C(F)(F)F)cc2)c(-c2nnn(C)n2)c1` [Compound 45, N-(2-(2-(2-acetamidoethoxy)ethoxy)ethyl)-3-(2-methyl-2H-tetrazol-5-yl)-4-((4-(trifluoromethyl)phenyl)amino) benzamide] is at most 100 nM.
Turning to `O=C(O)c1ccc(Nc2ccc(C(F)(F)F)cc2)c(-c2cccnn2)c1` [Compound 46, 3-pyridazin-3-yl-4-[4-(trifluoromethyl)anilino] benzoic acid], the IC50 was at most 100 nM.
For the compound `Cn1nnc(-c2cc(C(=O)NCCOCCOCCNC(=O)OC(C)(C)C)ccc2Nc2ccc(C(F)(F)F)cc2)n1` [Compound 47, tert-butyl (2-(2-(2-(3-(2-methyl-2H-tetrazol-5-yl)-4-((4-(trifluoromethyl)phenyl)amino)benzamido)ethoxy)ethoxy)ethyl)carbamate], the IC50 was 100 to 1000 nM.
The figure for `O=C(O)c1ccc(Nc2ccc(C(F)(F)F)cc2)c(-c2cc(F)ccn2)c1` [Compound 49, 3-(4-fluoro-2-pyridyl)-4-[4-(trifluoromethyl)anilino] benzoic acid] is at most 100 nM; for `COc1ccnc(-c2cc(C(=O)O)ccc2Nc2ccc(C(F)(F)F)cc2)c1` [Compound 50] it is at most 100 nM.
Take `O=C(O)c1ccc(Nc2ccc(C(F)(F)F)cc2)c(-c2ccc(F)cn2)c1` [Compound 51, 3-(5-fluoro-2-pyridyl)-4-[4-(trifluoromethyl)anilino] benzoic acid]: the IC50 is at most 100 nM.
Take `O=C(O)c1ccc(Nc2ccc(C(F)(F)F)cc2)c(-c2ccc(Cl)cn2)c1` [Compound 52, 3-(5-chloro-2-pyridyl)-4-[4 (trifluoromethyl)anilino] benzoic acid]: the IC50 is at most 100 nM.
`COC(=O)c1ccc(Nc2ccc(C(F)(F)F)cc2)c(-c2nnc(C3CC3)o2)c1` [Compound 53, methyl 3-(5-cyclopropyl-1,3,4-oxadiazol-2-yl)-4-((4-(trifluoromethyl)phenyl)amino)benzoate]: the IC50 is at most 100 nM.
In the case of `O=C(O)c1ccc(Nc2ccc(C(F)(F)F)cc2)c(-c2nnc(C3CC3)o2)c1` [Compound 54, 3-(5-cyclopropyl-1,3,4-oxadiazol-2-yl)-4-((4-(trifluoromethyl)phenyl)amino) benzoic acid] it was at most 100 nM.
Regarding `O=C(O)c1ccc(Nc2ccc(C(F)(F)F)cc2)c(-c2cc(Cl)ccn2)c1` [Compound 55, 3-(4-chloro-2-pyridyl)-4-[4-(trifluoromethyl)anilino] benzoic acid], the IC50 was at most 100 nM.
On to `COC(=O)c1ccc(Nc2ccc(C(F)(F)F)cc2)c(-c2cc(N)ncn2)c1` [Compound 56, methyl 3-(6-aminopyrimidin-4-yl)-4-[4-(trifluoromethyl)anilino] benzoate], for which the IC50 was at most 100 nM.
The figure for `O=C(O)c1ccc(Nc2ccc(C(F)(F)F)cc2)c(-c2cocn2)c1` [Compound 57, 3-(oxazol-4-yl)-4-((4-(trifluoromethyl)phenyl)amino) benzoic acid] is at most 100 nM; for `O=C(O)c1ccc(Nc2ccc(C(F)(F)F)cc2)c(-c2nnc(C(F)(F)F)s2)c1` [Compound 58, 4-[4-(trifluoromethyl)anilino]-3-[5-(trifluoromethyl)-1,3,4-thiadiazol-2-yl]benzoic acid] it is at most 100 nM; for `O=C(O)c1ccc(Nc2ccc(C(F)(F)F)cc2)c(-c2nnc(C3CC3)s2)c1` [Compound 59, 3-(5-cyclopropyl-1,3,4-thiadiazol-2-yl)-4-((4-(trifluoromethyl)phenyl)amino) benzoic acid] it is at most 100 nM.
For `O=C(O)c1ccc(Nc2ccc(C(F)(F)F)cc2)c(-c2ccncn2)c1` [Compound 60, 3-pyrimidin-4-yl-4-[4-(trifluoromethyl)anilino] benzoic acid], the IC50 lay within 100 to 1000 nM.
The figure for `O=C(O)c1ccc(Nc2ccc(C(F)(F)F)cc2)c(-c2ncco2)c1` [Compound 61, 3-(oxazol-2-yl)-4-((4-(trifluoromethyl)phenyl)amino) benzoic acid] is at most 100 nM; for `Cn1nnc(-c2cc(C(=O)NCCOCCOCCOCCOCCNC(=O)OC(C)(C)C)ccc2Nc2ccc(C(F)(F)F)cc2)n1` [Compound 63, tert-butyl (1-(3-(2-methyl-2H-tetrazol-5-yl)-4-((4-(trifluoromethyl)phenyl)amino)phenyl)-1-oxo-5,8,11,14-tetraoxa-2-azahexadecan-16-yl)carbamate] it is 100 to 1000 nM.
In the case of `COCC(=O)NCCOCCOCCNC(=O)c1ccc(Nc2ccc(C(F)(F)F)cc2)c(-c2nnn(C)n2)c1` [Compound 64, 3-(2-methyl-2H-tetrazol-5-yl)-N-(4-oxo-2,8,11-trioxa-5-azatridecan-13-yl)-4-((4-(trifluoromethyl)phenyl)amino) benzamide] it was 100 to 1000 nM; in that of `COCCC(=O)NCCOCCOCCNC(=O)c1ccc(Nc2ccc(C(F)(F)F)cc2)c(-c2nnn(C)n2)c1` [Compound 65, 3-(2-methyl-2H-tetrazol-5-yl)-N-(5-oxo-2,9,12-trioxa-6-azatetradecan-14-yl)-4-((4-(trifluoromethyl)phenyl)amino) benzamide], 100 to 1000 nM.
